The values below come from publication PMC9496258, “Trace Immunosensing of Multiple Neonicotinoid Insecticides by a Novel Broad-Specific Antibody Obtained from a Rational Screening Strategy” (Biosensors, 2022).

In brackets after ≈: the same amount, converted by molar mass.

One may read the IC50 as the concentration that gives 50% inhibition.

The test system of one test is 6F11-mAb. Put plainly: icELISA with purified 6F11-mAb. The test is classed as binding, mouse. As to conditions: for CR / IC50: 6F11-mAb; for CR: cross-reactivity relative to imidacloprid; for IC50: imidacloprid-OVA 10 µg/mL; for recognition by the antibody (6F11): in words. On the procedure:
(§1) Procedures for the immunization, cell fusion and clone selection were similar to those described in our previous publications, and indirect non-competitive and competitive ELISAs were sequentially used for hybridoma screening. The generated mAb was purified by protein G from the ascitic fluid and then stored at −20 °C for further analysis. A mouse antibody isotyping kit was used to determine the isotypes of the mAbs.
(§2) Checkerboard titration was carried out by icELISAs with serial dilutions of the antibody and coating antigen (imidacloprid-OVA). […] The specificity and sensitivity were determined by icELISAs. Briefly, the mixture of standards with different concentrations and equal volume of antibody was added into the reaction wells of pre-coated plates. Standard curves were fitted into a four-parameter logarithmic equation: Y = A2 + [(A1 − A2)/1 + (X/X0)^p], and the half-maximal inhibitory concentration (IC50, defined as the assay sensitivity, was used to calculate cross-reactivity rate(CR).
(§3) Under the optimal working concentrations of 10 µg/mL for imidacloprid-OVA, icELISAs with high sensitivity to neonicotinoid pesticides and metabolites were established.

Test [1] deals with 6F11-rAb. The test can be described thus: icELISA with full-length recombinant 6F11-rAb. As to conditions: for CR: cross-reactivity relative to imidacloprid; for IC50: imidacloprid-OVA 10 µg/mL. In kind it is binding, mouse. On the procedure: Transient production in the HEK 293F suspension cells was performed as described. Briefly, cells were prepared with viable cell density around 1.5 × 10^6 cells/mL and viability above 95 % in 180 mL serum-free culture medium in 500 mL Nunc Erlenmeyer flasks and incubated at 37 °C in 5% CO2 atmosphere and shaken at 130 rpm in an orbital shaker for 2 h. A total of 90 μg of the plasmids (VH:VL = 2:3) mixed with transfection reagent were pre-warmed for 15 min and then transiently transfected into HEK 293F. After 5 days of incubation, the supernatant was collected and purified by protein G. The size of the purified full-length rAb was identified by SDS-PAGE.
as §2, §3

Test [2] relates to 6F11-rAb. The test can be described thus: GNIS (gold lateral-flow immunosensing strip) assay based on 6F11-rAb. In kind it is binding, mouse. The settings on record: for limit detection of T-line disappearance (visual detection limit): normal visual detection; for IC50: with a strip reader. From the text: The preparation method for the conjugate of rAb-gold nanoparticles was based on a previous report. A colloid gold lateral-flow immunosensing strip consisted of three pads (glass fiber membrane, NC membrane and absorption membrane) using a one-sided adhesive polyvinyl chloride sheet as a support. The prepared imidaclothiz-OVA conjugate and goat anti-mouse IgG antibody were immobilized onto the NC membrane as the test line (T line) and control line (C line), respectively. For analysis, standard solutions at different concentrations were added to the 96-well microtiter plate, and then the strip was inserted into the well. After 15 min, the signal was observed using a portable reader (Helmen, Suzhou, China). Standard curves were gained by plotting the signal ratio of the T line to the C line (T/C) against the analyte concentration, and they were also fitted into the four-parameter logarithmic equation.
The 6F11-rAb was used to establish a rapid and reliable GNIS assay, and the limit detection of T-line disappearance was 5 ng/mL for imidacloprid, clothianidin and imidaclothiz and over 100 ng/mL for thiacloprid, acetamiprid and nitenpyram, judged by normal visual detection (Figure 5). […] Therefore, imidacloprid, clothianidin and imidaclothiz, with better sensitivity, were further determined by spiking experiment.

The next test relates to mAb 5C3. Put plainly: icELISA with mAb 5C3 (hybridoma supernatant), coating antigen imidacloprid-OVA. In kind it is binding, mouse. As to conditions: for CR: mAb 5C3, cross-reactivity relative to imidacloprid; for IC50: mAb 5C3, hybridoma supernatant, icELISA. On the procedure:
as §1, §2
(§4) Moreover, sensitivity (IC50) and CR to eight neonicotinoids were assessed by icELISAs.

Another test relates to mAb 6F11. Put plainly: icELISA with mAb 6F11 (hybridoma supernatant), coating antigen imidacloprid-OVA. The test is classed as binding, mouse. As to conditions: for CR: mAb 6F11, cross-reactivity relative to imidacloprid; for IC50: mAb 6F11, hybridoma supernatant, icELISA. Here is the method: as §1, §2, §4
For test [3], the system named is anti-imidacloprid monoclonal antibody. More on the design: method as in PMID 31862564. As to conditions: anti-imidacloprid mAb, lateral-flow immunoassay; cited from earlier work.
For a further test, the system named is mAb 4B1. Put plainly: icELISA with mAb 4B1 (hybridoma supernatant), coating antigen imidacloprid-OVA. The test is classed as binding, mouse. As to conditions: for CR: mAb 4B1, cross-reactivity relative to imidacloprid; for IC50: mAb 4B1, hybridoma supernatant, icELISA. Here is the method:
as §1, §2, §4

The test system of another test is mAb 1A5. The test can be described thus: icELISA with mAb 1A5 (hybridoma supernatant), coating antigen imidacloprid-OVA. The test is classed as binding, mouse. As to conditions: for CR: mAb 1A5, cross-reactivity relative to imidacloprid; for IC50: mAb 1A5, hybridoma supernatant, icELISA. Here is the method: as §1, §2, §4

Take `O=[N+]([O-])/C=C1\NCCN1Cc1ccc(Cl)nc1` [6-Cl-PMNI]: in the test with 6F11-mAb, the CR is 132.9% and the concentration for half-maximal inhibition (IC50) was determined as 0.20 ng/mL. Further, in the test with 6F11-rAb [1], the CR is listed as 100.6% and the IC50 was 0.36 ng/mL.

In the case of `C/C(=N\C#N)N(C)Cc1ccc(Cl)nc1` [Acetamiprid, acetamiprid], the “limit detection of T-line disappearance (visual detection limit)” value (“limit detection of T-line disappearance” below) in the test on 6F11-rAb [2] is listed as “over 100 ng/mL”. Further, the CR in the test on 6F11-mAb is listed as 4.5%; in the test on 6F11-rAb [1] it was 4.0%; in the test on mAb 5C3 it was 0.4%; with mAb 6F11, 9.5%; in the test on mAb 4B1, 3.1%; in the test with mAb 1A5, 2.6%. For the same compound, the IC50 with 6F11-mAb was 5.92 ng/mL; in the test with 6F11-rAb [1], 9.04 ng/mL; with mAb 5C3, 58.52 ng/mL; in the test on mAb 6F11 it was 6.24 ng/mL; with mAb 4B1, 92.77 ng/mL; in the test on mAb 1A5 it was 43.34 ng/mL. In test [3], the cross-reactivity is 1.1%.

`CN/C(=N\[N+](=O)[O-])NCc1cnc(Cl)s1` [Clothianidin, clothianidin]: the “limit detection of T-line disappearance” value in the test with 6F11-rAb [2] came to 5 ng/mL. Further, the concentration for half-maximal inhibition (IC50) in the test with 6F11-rAb [2] was 0.5 ng/mL (≈ 2 nM); with 6F11-mAb, 0.46 ng/mL; in the test on 6F11-rAb [1], 0.86 ng/mL; in the test on mAb 5C3, 1.19 ng/mL; in the test on mAb 6F11, 1.43 ng/mL; with mAb 4B1, 59.41 ng/mL. For the same compound, in the test with mAb 1A5, the IC50 is given as 1.80 ng/mL. The CR in the test on 6F11-mAb is recorded as 58.3%; with 6F11-rAb [1], 41.7%; with mAb 5C3, 20.2%; with mAb 6F11 it was 41.3%; in the test on mAb 4B1, 4.9%; with mAb 1A5, 63.3%. Besides, in test [3], the cross-reactivity was 4.1%.

`CN/C(=N/CC1CCOC1)N[N+](=O)[O-]` (stereo not shown) [Dinotefuran, dinotefuran]: the CR in the test on 6F11-mAb is below 0.1%; in the test on 6F11-rAb [1] it was below 0.1%; in the test with mAb 5C3, below 0.1%; with mAb 5C3 (listed as dinotefuran), “without obvious CR”; with mAb 6F11, below 0.1%; in the test on mAb 6F11 (listed as dinotefuran), “without obvious CR”. The CR with mAb 4B1 is below 0.1%; with mAb 4B1 (listed as dinotefuran), “no CR”; with mAb 1A5, below 0.1%; in the test on mAb 1A5 (listed as dinotefuran), “without obvious CR”. Besides, the IC50 with 6F11-mAb, with 6F11-rAb [1], with mAb 5C3, with mAb 6F11, in the test on mAb 4B1 and in the test on mAb 1A5 was above 1000 ng/mL each time.

In the case of `O=[N+]([O-])/N=C1\NCCN1Cc1cnc(Cl)s1` [Imidaclothiz, imidaclothiz], in the test with 6F11-rAb [2], the “limit detection of T-line disappearance” value came to 5 ng/mL. Also, the IC50 with 6F11-rAb [2] worked out at 0.7 ng/mL (≈ 2.67 nM); in the test with 6F11-mAb, 0.23 ng/mL; in the test on 6F11-rAb [1], 0.30 ng/mL; in the test on mAb 5C3, 2.79 ng/mL; in the test on mAb 6F11 it was 0.48 ng/mL; with mAb 4B1, 41.09 ng/mL. Besides, in the test on mAb 1A5, the IC50 is on record as 0.90 ng/mL. Also, the CR came out at 115.1% with 6F11-mAb; 119.8% in the test on 6F11-rAb [1]; 8.6% in the test on mAb 5C3; 122.9% with mAb 6F11; 7.1% in the test with mAb 4B1; 126.7% in the test with mAb 1A5.

As for `O=[N+]([O-])/N=C1\NCOCN1Cc1cnc(Cl)s1` [N-desmethyl thiamethoxam], in the test on 6F11-mAb, the CR worked out at 124.8%, the half-maximal inhibitory concentration (IC50) stood at 0.21 ng/mL and the “recognition by the antibody (6F11)” value was “very high affinity”. Moreover, in the test on 6F11-rAb [1], the CR was 67.8% and the concentration for half-maximal inhibition (IC50) is listed as 0.53 ng/mL.

Turning to `CCN(Cc1ccc(Cl)nc1)/C(=C/[N+](=O)[O-])NC` [Nitenpyram, nitenpyram], the “limit detection of T-line disappearance” value in the test with 6F11-rAb [2] is reported as “over 100 ng/mL”. For the same compound, the CR is on record as 4.8% in the test with 6F11-mAb; 5.1% in the test on 6F11-rAb [1]; 0.8% in the test on mAb 5C3; 8.2% with mAb 6F11; below 0.1% in the test on mAb 4B1; “no CR” in the test with mAb 4B1 (listed as nitenpyram). The CR in the test on mAb 1A5 is reported as 3.7%. The concentration for half-maximal inhibition (IC50) with 6F11-mAb is listed as 5.57 ng/mL; with 6F11-rAb [1], 7.07 ng/mL; in the test on mAb 5C3 it was 30.66 ng/mL; in the test with mAb 6F11, 7.16 ng/mL; in the test with mAb 4B1 it was above 1000 ng/mL; in the test with mAb 1A5 it was 31.19 ng/mL.

Turning to `N#C/N=C1\SCCN1Cc1ccc(Cl)nc1` [Thiacloprid, thiacloprid], the “limit detection of T-line disappearance” value with 6F11-rAb [2] was “over 100 ng/mL”. The CR was determined as 20.6% in the test on 6F11-mAb; 12.5% in the test on 6F11-rAb [1]; 1.8% in the test on mAb 5C3; 21.2% with mAb 6F11; 10.2% in the test with mAb 4B1; 2.7% in the test on mAb 1A5. Also, the half-maximal inhibitory concentration (IC50) is reported as 1.30 ng/mL in the test on 6F11-mAb; 2.89 ng/mL in the test with 6F11-rAb [1]; 13.39 ng/mL in the test with mAb 5C3; 2.78 ng/mL with mAb 6F11; 28.37 ng/mL in the test with mAb 4B1; 42.91 ng/mL with mAb 1A5.

For the compound `CN1COCN(Cc2cnc(Cl)s2)/C1=N\[N+](=O)[O-]` [Thiamethoxam, thiamethoxam], the CR with 6F11-mAb is below 0.1%; in the test with 6F11-rAb [1], below 0.1%; in the test with mAb 5C3, below 0.1%; in the test on mAb 5C3 (listed as thiamethoxam) it was “without obvious CR”; in the test with mAb 6F11 it was below 0.1%; in the test on mAb 6F11 (listed as thiamethoxam), “without obvious CR”. Also, the CR is on record as below 0.1% with mAb 4B1, “no CR” in the test on mAb 4B1 (listed as thiamethoxam), below 0.1% in the test with mAb 1A5 and “without obvious CR” in the test on mAb 1A5 (listed as thiamethoxam). Further, the IC50 with 6F11-mAb, in the test with 6F11-rAb [1], with mAb 5C3, in the test with mAb 6F11, in the test on mAb 4B1 and in the test with mAb 1A5 was above 1000 ng/mL in each case. The “recognition by the antibody (6F11)” value in the test on 6F11-mAb is listed as “cannot recognize”.
